Experimental data taken from PMC10687260, “1,3-Diphenylureido hydroxamate as a promising scaffold for generation of potent antimalarial histone deacetylase inhibitors” (Scientific Reports, 2023).

How the values were obtained:
P. falciparum 3D7 = test: Antiplasmodial SYBR Green I proliferation assay, P. falciparum 3D7; type: cell-based, Plasmodium falciparum; details: Plasmodium falciparum, 3D7, 96 h, 96 h; values in brackets 95% confidence intervals; read-out: IC50 Pf3D7
Description: Antiplasmodial activity against P. falciparum 3D7 (A, C and E) and P. falciparum Dd2 (B, D, F). […] Curves were plotted using non-linear regression based on means from three independent experiments measured in triplicate. Error bars indicate standard deviation, whose values are provided in the respective table.
Plasmodium falciparum culture and antiplasmodial activity. […] Development, parasitaemia, and morphology of parasites were monitored by light microscopy of thin blood smears stained according to the Romanowsky method (Panótico Rápido staining kit; Laborclin, Pinhais, Paraná, Brazil). […] Fresh 0^+ blood was generously provided by “Hospital Novo Atibaia” (Atibaia, SP, Brazil), and approved by the ethics committee at ICB-USP. The antiplasmodial effect of all compounds was validated against P. falciparum 3D7 strain conducting SYBR Green I (Invitrogen) drug assays as previously reported[30],[46] as a modification of the original procedure. […] Parasite proliferation was measured by the DNA load via fluorescence, using 100 μL of a lysis buffer with SYBR Green I (0.02% v/v) and incubated for 1 h at room temperature in the dark. […] Focal and gain adjustment was performed using the non-treated controls (highest expected fluorescence signal). Data was acquired via the CLARIOstar (V5.20) and MARS software, manually scaled to 0–100%, and plotted using GraphPad Prism (v9.5.2 for Windows, GraphPad Software, La Jolla California USA, www.graphpad.com). Non-treated parasites, the highest solvent concentration on parasites, CQ on parasites, and the highest drug concentration in the medium were used as controls for maximal growth, solvent control, positive biological control, and native drug fluorescence, respectively.

HepG2 cells = test: Cytotoxicity in human HepG2 cells (WST-1); type: cell-based; details: Homo sapiens, HepG2; 48 h, WST-1; read-out: IC50 HepG2
Method: Cytotoxicity in human HepG2 cells.[47] […] Cytotoxic effects of compounds were assessed using the cell proliferation reagent WST-1 (Roche; CELLPRO-RO) in a 96-well plate-based screening assay. HepG2 cells were seeded at 10^4 cells/well (100 μL) in 96-well flat-bottom plates (Sarstedt) the night before the experiment to allow attachment of cells. The next day, two-fold serial dilutions of compounds were prepared in fresh medium in an extra plate, and the medium of cells was replaced by the medium containing the compound dilutions. Non-treated cells (max. proliferation), cells treated with the maximal solvent concentration (DMSO; solvent control), and medium with the maximal compound concentration (native absorbance) used as controls. […] Subsequently, 10 μL WST-1 was added to each well and plates were incubated for additional 4 h under standard conditions. WST-1 is a tetrazolium salt and is metabolised by the mitochondrial succinate-tetrazolium-reductase system of living cells and forms formazan, whose absorbance was measured at 450 nm. Absorbance at 630 nm was assessed to check for protein and precipitation background. Both measurements were acquired via the CLARIOstar (V5.20) and MARS software, manually scaled to 0–100%, and plotted with GraphPad Prism (version 9.5.2 for Windows, GraphPad Software, La Jolla California USA).

human HDAC1 = biological target: T1, human HDAC1 (Homo sapiens, UniProt Q13547); test: In vitro HDAC enzymatic assay, HDAC1; type: biochemical; details: mean ± SD
T1 construct: purchased ENZO Life Sciences AG (Lausen, CH)
T1 sequence (Q13547 whole entry): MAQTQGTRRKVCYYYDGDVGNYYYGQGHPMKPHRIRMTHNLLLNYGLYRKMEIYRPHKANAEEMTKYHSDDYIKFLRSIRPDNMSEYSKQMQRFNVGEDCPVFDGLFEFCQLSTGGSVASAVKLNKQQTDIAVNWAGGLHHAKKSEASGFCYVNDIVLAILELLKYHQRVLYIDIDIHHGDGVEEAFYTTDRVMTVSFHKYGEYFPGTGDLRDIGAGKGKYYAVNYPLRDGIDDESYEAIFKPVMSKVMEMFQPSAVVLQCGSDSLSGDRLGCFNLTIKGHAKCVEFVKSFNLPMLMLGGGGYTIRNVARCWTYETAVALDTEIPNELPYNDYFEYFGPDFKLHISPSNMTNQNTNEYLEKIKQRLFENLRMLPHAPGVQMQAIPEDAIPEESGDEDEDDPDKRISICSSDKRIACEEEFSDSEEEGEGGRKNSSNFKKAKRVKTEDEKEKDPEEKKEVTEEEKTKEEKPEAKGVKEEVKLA
Method: (§1) In vitro HDAC enzymatic assays. Recombinant human HDAC1 and HDAC6 were purchased from ENZO Life Sciences AG (Lausen, CH) whereas HDAC8 was produced as described before. In vitro testing of the inhibitors in an enzymatic assay was carried out as described in previous publications[32],[33]. For HDAC1 a fluorogenic peptide derived from p53 (Ac-RHKK(Acetyl)-AMC) was used. For HDAC6, the substrate (Abz-SRGGK(thio-TFA)FFRR-NH2) was used as described before.

human HDAC6 = biological target: T2, human HDAC6 (Homo sapiens, UniProt Q9UBN7); test: In vitro HDAC enzymatic assay, HDAC6; type: biochemical; details: for IC50: mean ± SD; for HDAC1/6 SI: ratio HsHDAC1 IC50/HsHDAC6 IC50
T2 construct: purchased ENZO Life Sciences AG (Lausen, CH)
T2 sequence (Q9UBN7 1-1215): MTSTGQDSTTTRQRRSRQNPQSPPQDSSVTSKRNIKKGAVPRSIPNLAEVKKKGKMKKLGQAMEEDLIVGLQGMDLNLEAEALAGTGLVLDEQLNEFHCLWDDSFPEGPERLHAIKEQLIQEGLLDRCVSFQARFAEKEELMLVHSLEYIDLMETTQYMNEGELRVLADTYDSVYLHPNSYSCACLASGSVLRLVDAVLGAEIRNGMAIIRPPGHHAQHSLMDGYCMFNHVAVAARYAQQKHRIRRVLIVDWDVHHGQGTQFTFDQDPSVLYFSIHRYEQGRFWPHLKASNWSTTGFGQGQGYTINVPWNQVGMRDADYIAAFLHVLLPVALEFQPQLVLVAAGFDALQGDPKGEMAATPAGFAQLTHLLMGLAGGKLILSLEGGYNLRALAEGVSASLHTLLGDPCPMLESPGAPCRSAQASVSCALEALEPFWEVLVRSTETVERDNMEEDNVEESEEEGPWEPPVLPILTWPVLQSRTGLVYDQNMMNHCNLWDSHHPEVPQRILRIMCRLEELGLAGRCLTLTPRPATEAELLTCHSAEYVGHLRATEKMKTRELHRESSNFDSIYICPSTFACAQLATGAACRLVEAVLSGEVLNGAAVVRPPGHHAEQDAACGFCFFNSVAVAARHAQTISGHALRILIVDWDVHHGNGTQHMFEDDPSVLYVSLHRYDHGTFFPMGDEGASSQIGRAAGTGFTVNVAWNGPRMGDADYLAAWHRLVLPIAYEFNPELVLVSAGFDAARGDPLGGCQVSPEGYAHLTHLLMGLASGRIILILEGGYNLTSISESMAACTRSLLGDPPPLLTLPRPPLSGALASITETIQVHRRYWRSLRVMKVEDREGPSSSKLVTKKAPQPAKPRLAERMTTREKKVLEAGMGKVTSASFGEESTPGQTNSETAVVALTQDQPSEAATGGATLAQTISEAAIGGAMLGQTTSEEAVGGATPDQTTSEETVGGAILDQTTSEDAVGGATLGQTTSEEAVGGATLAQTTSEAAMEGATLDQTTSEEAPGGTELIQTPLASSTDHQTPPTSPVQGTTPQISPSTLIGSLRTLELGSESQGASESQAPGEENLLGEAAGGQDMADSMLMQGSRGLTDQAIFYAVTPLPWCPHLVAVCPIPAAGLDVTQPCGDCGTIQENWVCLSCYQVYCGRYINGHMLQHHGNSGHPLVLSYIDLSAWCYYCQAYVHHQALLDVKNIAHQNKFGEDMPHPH
Method: as §1

HDAC8 = biological target: T3, HDAC8 (Homo sapiens, UniProt Q9BY41); test: In vitro HDAC enzymatic assay, HDAC8; type: biochemical; details: mean ± SD
T3 construct: made in house
T3 sequence (Q9BY41 1-377): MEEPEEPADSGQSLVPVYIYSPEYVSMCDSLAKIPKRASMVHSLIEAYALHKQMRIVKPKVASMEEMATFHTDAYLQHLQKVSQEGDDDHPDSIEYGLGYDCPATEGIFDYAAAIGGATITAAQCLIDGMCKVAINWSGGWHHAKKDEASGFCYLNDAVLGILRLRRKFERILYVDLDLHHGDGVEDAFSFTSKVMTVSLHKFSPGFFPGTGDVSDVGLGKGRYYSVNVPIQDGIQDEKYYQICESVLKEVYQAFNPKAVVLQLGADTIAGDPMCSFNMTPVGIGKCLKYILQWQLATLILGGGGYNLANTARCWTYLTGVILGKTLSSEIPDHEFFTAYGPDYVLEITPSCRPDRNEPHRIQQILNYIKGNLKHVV
Method: as §1

CYP450 2C9 = biological target: T4, CYP450 2C9 (Homo sapiens, UniProt P11712); test: CYP450 inhibition in human liver microsomes, 2C9; type: in vitro ADME
T4 construct: 10 μM compound was incubated with human liver microsomes and selective marker substrates; from tissue; host or cells: human liver microsomes
T4 sequence (P11712 whole entry): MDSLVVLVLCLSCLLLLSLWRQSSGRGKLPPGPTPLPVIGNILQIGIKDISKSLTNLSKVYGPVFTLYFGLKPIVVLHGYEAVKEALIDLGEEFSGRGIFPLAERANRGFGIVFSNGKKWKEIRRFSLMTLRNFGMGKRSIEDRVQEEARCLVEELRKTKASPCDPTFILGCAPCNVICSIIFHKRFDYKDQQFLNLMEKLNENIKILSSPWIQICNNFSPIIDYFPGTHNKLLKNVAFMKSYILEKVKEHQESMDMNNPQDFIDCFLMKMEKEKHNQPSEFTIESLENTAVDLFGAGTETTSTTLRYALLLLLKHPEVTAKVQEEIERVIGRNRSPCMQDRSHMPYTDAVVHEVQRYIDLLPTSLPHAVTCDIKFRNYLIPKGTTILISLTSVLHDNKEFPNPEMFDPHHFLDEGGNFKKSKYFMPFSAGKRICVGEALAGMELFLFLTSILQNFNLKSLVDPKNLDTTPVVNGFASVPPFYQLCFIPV

CYP450 2D6 = biological target: T5, CYP450 2D6 (Homo sapiens, UniProt P10635); test: CYP450 inhibition in human liver microsomes, 2D6; type: in vitro ADME; details: Tested concentration: 40 µM
T5 construct: 10 μM compound was incubated with human liver microsomes and selective marker substrates; from tissue; host or cells: human liver microsomes
T5 sequence (P10635 whole entry): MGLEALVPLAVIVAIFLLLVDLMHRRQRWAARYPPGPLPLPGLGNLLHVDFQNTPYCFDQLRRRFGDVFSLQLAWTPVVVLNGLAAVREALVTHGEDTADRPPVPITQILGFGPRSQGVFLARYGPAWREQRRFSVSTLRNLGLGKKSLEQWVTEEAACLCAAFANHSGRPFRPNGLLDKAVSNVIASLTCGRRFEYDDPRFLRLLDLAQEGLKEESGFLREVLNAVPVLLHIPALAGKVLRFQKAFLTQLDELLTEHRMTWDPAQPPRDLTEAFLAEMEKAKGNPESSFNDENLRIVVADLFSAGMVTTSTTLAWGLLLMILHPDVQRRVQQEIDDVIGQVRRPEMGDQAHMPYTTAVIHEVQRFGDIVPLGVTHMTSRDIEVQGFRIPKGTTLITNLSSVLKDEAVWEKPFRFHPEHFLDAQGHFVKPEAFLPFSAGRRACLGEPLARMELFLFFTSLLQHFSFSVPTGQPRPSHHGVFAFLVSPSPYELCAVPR

CYP1A2 = biological target: T6, CYP1A2 (Homo sapiens, UniProt P05177); test: CYP450 inhibition in human liver microsomes, 1A2; type: in vitro ADME; details: Tested concentration: 1.0 µM
T6 construct: 10 μM compound was incubated with human liver microsomes and selective marker substrates; from tissue; host or cells: human liver microsomes
T6 sequence (P05177 1-516): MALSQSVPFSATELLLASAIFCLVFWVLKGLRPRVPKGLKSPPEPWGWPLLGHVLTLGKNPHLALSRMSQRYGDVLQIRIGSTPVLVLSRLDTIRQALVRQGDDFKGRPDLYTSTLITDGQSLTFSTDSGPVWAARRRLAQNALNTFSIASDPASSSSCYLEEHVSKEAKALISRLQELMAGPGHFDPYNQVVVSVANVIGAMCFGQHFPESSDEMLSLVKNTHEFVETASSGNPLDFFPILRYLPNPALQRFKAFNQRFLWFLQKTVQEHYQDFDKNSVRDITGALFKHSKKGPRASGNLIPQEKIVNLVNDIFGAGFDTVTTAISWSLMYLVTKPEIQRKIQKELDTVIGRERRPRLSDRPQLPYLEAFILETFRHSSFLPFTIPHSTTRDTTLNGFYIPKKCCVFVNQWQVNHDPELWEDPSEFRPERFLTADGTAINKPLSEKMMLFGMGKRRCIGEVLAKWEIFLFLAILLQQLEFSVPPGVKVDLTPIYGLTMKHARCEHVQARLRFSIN

[1] = Stability in human hepatic microsomes; type: in vitro ADME
Description: (§2) DMPK evaluation. […].

[2] = Stability in mouse hepatic microsomes; type: in vitro ADME
Description: as §2

Structure (SMILES)	IC50 (P. falciparum 3D7) [nM]	IC50 (HepG2 cells) [nM]	IC50 (human HDAC6) [nM]	other results
O=C(Nc1ccc(OC(F)(F)F)cc1)Nc1ccc(C(=O)NO)cc1 [8 g, N-hydroxy-4-(3-(4-(trifluoromethoxy)phenyl)ureido)benzamide]	13900	60500		
N/C(=N\O)c1ccc(NC(=O)Nc2ccc(C(=O)NO)cc2)cc1 [8 h, (Z)-N-hydroxy-4-(3-(4-(N'-hydroxycarbamimidoyl)phenyl)ureido)benzamide]	390	> 200000	21.3 ± 0.5	IC50 (human HDAC1): 8300 ± 481 nM; HDAC1/6 SI (human HDAC6): 390; IC50 (HDAC8): 164 ± 9.1 nM; melting point: 97 to 99 °C
N#Cc1ccc(NC(=O)Nc2ccc(C(=O)NO)cc2)cc1 [8 k, 4-(3-(4-cyanophenyl)ureido)-N-hydroxybenzamide]	260	> 200000	11.6 ± 0.2	IC50 (human HDAC1): 3750 ± 563 nM; HDAC1/6 SI (human HDAC6): 323; IC50 (HDAC8): 51.5 ± 6.1 nM; melting point: 220 to 222 °C
O=C(/C=C/c1ccc(NC(=O)Nc2ccc(Cl)cc2)cc1)NO [Compound 6b, (E)-3-(4-(3-(4-chlorophenyl)ureido)phenyl)-N-hydroxyacrylamide]	7880	28800	14.3 ± 2.2	
O=C(/C=C/c1ccc(NC(=O)Nc2ccc([N+](=O)[O-])cc2)cc1)NO [Compound 6d, (E)-N-hydroxy-3-(4-(3-(4-nitrophenyl)ureido)phenyl)acrylamide]	1260	10400	9 ± 0.7	IC50 (human HDAC1): 1110 ± 56.3 nM; HDAC1/6 SI (human HDAC6): 124; IC50 (HDAC8): 99.1 ± 10.9 nM; melting point: 167 to 168 °C
O=C(CCc1ccc(NC(=O)Nc2ccc(Cl)cc2)cc1)NO [Compound 7b, 3-(4-(3-(4-chlorophenyl)ureido)phenyl)-N-hydroxypropanamide]	7040	> 50000	185 ± 21.6	IC50 (human HDAC1): 4780 ± 446 nM; HDAC1/6 SI (human HDAC6): 26; IC50 (HDAC8): 568 ± 40.5 nM; melting point: 286 °C (dec.)
Cc1ccc(NC(=O)Nc2ccc(C(=O)NO)cc2)cc1 [Compound 8e, N-hydroxy-4-(3-(p-tolyl)ureido)benzamide]	340	> 200000		
O=C(Nc1ccc(F)cc1)Nc1ccc(C(=O)NO)cc1 [Compound 8f., 4-(3-(4-fluorophenyl)ureido)-N-hydroxybenzamide]	400	116000		
O=C(Nc1ccc(C(=O)NO)cc1)Nc1ccc(C(F)(F)F)cc1 [Compound 8i, N-hydroxy-4-(3-(4-(trifluoromethyl)phenyl)ureido)benzamide]	1300	25100		
Nc1ccc(NC(=O)Nc2ccc(C(=O)NO)cc2)cc1 [Compound 8j, 4-(3-(4-aminophenyl)ureido)-N-hydroxybenzamide]	350	> 200000		
Nc1ccc(C(=O)NO)cc1 [Compound 15, 4-amino-N-hydroxybenzamide]	6300	> 200000		
Cc1nc2c([nH]1)c(=O)n(C)c(=O)n2Cc1ccco1 [Furafylline, reference compound]				CYP450% inhibition 2C9 (CYP450 2C9; Tested concentration: 40 µM): * (Inhibition < 10%); CYP450% inhibition 2D6 (CYP450 2D6): * (Inhibition < 10%)
CC(=O)N1CCN(c2ccc(OCC3COC(Cn4ccnc4)(c4ccc(Cl)cc4Cl)O3)cc2)CC1 (stereo not drawn) [Ketoconazole, reference compound]				CYP450% inhibition 1A2 (CYP1A2): * (Inhibition < 10%); CYP450% inhibition 2C9 (CYP450 2C9; Tested concentration: 1.0 µM): * (Inhibition < 10%)
CCN(CC)CCNC(=O)c1c(C)[nH]c(/C=C2\C(=O)Nc3ccc(F)cc32)c1C [Sunitinib, reference compound]				half-life at 1 µM ([1]; 1 mg/mL hepatic microsomes, 1 µM compound, read-out: Half-life t1/2 Human): 22.3 min; microsomal CLint at 1 µM ([1]; read-out: Intrinsic clearance Clint Human): 31 µL/min/mg; half-life at 1 µM ([2]; 1 mg/mL hepatic microsomes, 1 µM compound, read-out: Half-life t1/2 Mouse): 9.1 min; microsomal CLint at 1 µM ([2]; read-out: Intrinsic clearance Clint Mouse): 76 µL/min/mg
